Source: patent publication US9434687B2, “Detection of synthetic cannabinoids” (priority 2011, dated 2016)

Columns and labels:
[1] = tested on: antiserum raised to Immunogen I (Hapten A-BTG); assay: Competitive ELISA microtiter plate assay, antiserum raised to Immunogen I, conjugate Hapten A-HRP (Example 19); type: binding, sheep
Procedure: Aqueous solutions of the immunogens prepared in examples 5 and 13 were formulated with Freund's Complete Adjuvant (FCA) to form emulsions consisting of 2 mg/ml Immunogen I and 2 mg/ml of Immunogen II in 50% (v/v) FCA. Three sheep were immunised with each emulsion (1° immunisations), 0.25 ml being intramuscularly injected at four sites in the rump of each animal. Subsequent immunisations (boosts 2-8) contained 1 mg/ml Immunogen I and 1 mg/ml Immunogen II. All boosts were emulsified in 50% (v/v) Freund's Incomplete Adjuvant (FIA) and administered to the appropriate sheep in the same manner as the 1° immunisations, at monthly intervals. Blood sampling took place 7-14 days after each boost. Each sample was processed to produce antiserum, which was further purified by caprylic acid and ammonium sulphate precipitation to yield an immunoglobulin (Ig) fraction. The Ig fraction was evaluated by competitive ELISA microtiter plate assay, as described in example 19 below.
(§1) (a) The wells of an enhanced binding 96 well polystyrene microtiter plate were coated with the Ig fraction of the antiserum raised to Immunogen I (Hapten A-BTG—example 5) and diluted in 10 mM Tris, pH8.5 (125 μl/well). The appropriate antibody coating concentration was determined using standard ELISA checkerboard techniques. The plate was incubated for 2 hours at 37° C., washed 4 times over a 10-minute period with Tris buffered saline containing Tween 20 (TBST) and tapped dry. Standard solutions of JWH synthetic cannabinoids, metabolites and selected molecules were prepared in TBST and 50 μl of each was added to the appropriate wells. 75 μl of conjugate (Hapten A-HRP) diluted in Tris buffer containing EDTA, D-mannitol, sucrose, thimerosal and BSA, was added to each of the wells. The appropriate dilution of conjugate was also determined using standard ELISA checkerboard techniques. The plate was incubated at 25° C. for 1 hour. The excess unbound conjugate was removed by washing 6 times over a 10-minute period with TBST and tapped dry. 125 μl of tetramethylbenzedine (TMB) substrate solution was added to each well of the plate that was then incubated for 15-20 minutes in the dark at room temperature. The reaction was terminated by addition of 125 μl of 0.2M sulphuric acid to each well. The absorbance was then measured at 450 nm using a microtiter plate reader.
(§2) Employing each series of standards, calibration curves were generated and these were used to determine the specificity of the immunoassay for the JWH synthetic cannabinoids, metabolites and selected molecules. The results of this study are presented in Tables 1 to 3, cross-reactivity being calculated according to the following formula: % CR=IC50,JWH-018/IC50,CR×100
(§3) Where % CR is the percentage cross-reactivity, IC50, JWH-018 is the concentration of JWH-018 that causes 50% displacement of signal and IC50, CR is the concentration of JWH synthetic cannabinoid/metabolite/selected molecule that causes 50% displacement of signal.
(b) In a similar manner to that described in Example 19(a), the wells of a 96 well microtiter plate were coated with the Ig fraction of the antiserum raised to Immunogen I (Hapten A-BTG). Conjugate (Hapten A-HRP) was employed as a detection reagent.
Table 2: Data generated from a competitive microtiter plate assay for JWH synthetic cannabinoids and metabolites, employing antiserum raised to Immunogen I (Hapten A-BTG) and conjugate (Hapten A-HRP) as detection reagent.
(d) The resulting competitive ELISA for synthetic cannabinoids and metabolites was also employed to test for the 5-fluoropentyl derivative of JWH-018, (1-(5-fluoropentyl)indol-3yl (1-naphthyl) methanone (Table 4).

[2] = tested on: antibodies raised to Immunogens I & II; assay: Competitive ELISA, selected molecules as potential cross-reactants (Table 3); type: binding, sheep
Procedure: as §1, §2, §3
The antibody produced from Immunogen I is able to bind to JWH molecules known to be incorporated in herbal therapeutics such as JWH-018, proposed metabolites such as M2 (Wintermeyer et al 2010), and potential metabolites such as M5. The detection and quantification of other JWH SSCs is also provided for, the antibodies of the invention bind a range of molecules comprising the 3-(1-naphthoyl)-1H-indole structure (e.g. JWH-071, JWH-398, M1 etc.). […] The concept of using the antibodies of the invention to detect and determine future stealth synthetic cannabinoids is highlighted in Table 4; the 5-fluoropentyl derivative known to bind the CB 1 receptor, but which as of yet has not been detected in herbal therapeutics or similar substances, binds to antibodies raised from Immunogens I and II.

[3] = Table 2, CR based on 100% for JWH-018
[4] = Table 2, detecting agent derived from Hapten-A, 40 ng/ml highest concentration tested
[5] = Table 4, Immunogen I, relative to JWH-018

| Compound | % Cross-reactivity [1, 3] | IC50 [1, 4] | binding to the antibody produced from Immunogen I (in words) [1] | binding / cross-reaction with antibodies raised from Immunogens I and II (in words) [2] | IC50 ([1]; Table 4, Immunogen I) [ng/mL] | % Cross-reactivity [1, 5] [%] |
| --- | --- | --- | --- | --- | --- | --- |
| CCCCCn1cc(C(=O)c2cccc3ccccc23)c2c(O)cccc21 [4-OH JWH-018, JWH-018 4-hydroxyindole metabolite] | 10.62% | 25.51 ng/mL |  |  |  |  |
| CCCCCn1cc(C(=O)c2cccc3ccccc23)c2cc(O)ccc21 [5-OH JWH-018, JWH-018 5-hydroxyindole metabolite] | 694.87% | 0.39 ng/mL | able to bind |  |  |  |
| CCCCCn1cc(C(=O)c2cccc3ccccc23)c2ccc(O)cc21 [6-OH JWH-018, JWH-018 6-hydroxyindole metabolite] | 132.84% | 2.04 ng/mL | able to bind |  |  |  |
| O=C(c1cccc2ccccc12)c1cn(CCCCCF)c2ccccc12 [AM-2201, 1-(5-Fluoropentyl)indol-3-yl (1-naphthyl) methanone] |  |  |  | binds | 0.02 | 11500.00 |
| O=C(c1cccc2ccccc12)c1cn(CCCCCO)c2ccccc12 [JWH-018 N-(5-hydroxypentyl) metabolite] | 1505.56% | 0.18 ng/mL |  |  |  |  |
| O=C(O)CCCCn1cc(C(=O)c2cccc3ccccc23)c2ccccc21 [JWH-018 N-pentanoic acid metabolite] | 645.24% | 0.42 ng/mL |  | bind |  |  |
| CCCCCn1cc(C(=O)c2cccc3ccccc23)c2ccccc21 [JWH-018] | 100.00% | 2.71 ng/mL | able to bind |  | 2.30 | 100.00 |
| CCCCn1cc(C(=O)c2cccc3ccccc23)c2ccccc21 [JWH-073] | 291.40% | 0.93 ng/mL |  |  |  |  |
| O=C(c1cccc2ccccc12)c1cn(CCN2CCOCC2)c2ccccc12 [JWH-200] | 874.19% | 0.31 ng/mL |  |  |  |  |
| CCCCCn1cc(C(=O)c2ccc(Cl)c3ccccc23)c2ccccc21 [JWH-398] | <<6.78% | >>40 ng/ml |  | bind |  |  |
| O=C(c1cccc2ccccc12)c1c[nH]c2ccccc12 [N-desalkyl JWH-018, 3-(1-naphthoyl)-1H-Indole] | 70.57% | 3.84 ng/mL |  |  |  |  |
